This note sets out measurements from US6566409B1, “Lock and key micelles” (University of South Florida, priority 1994, dated 2003).

The series in a line: Solubility of barbituric acid in CD3CN, free and with bisamidopyridine dendrimers. It is filed as physicochemical. The source says: Chemical shift changers for the complexed NH moieties, even in this competing solvent, corresponded to ca. 0.1 ppm for both generation dendrimers.

On to `O=C1CC(=O)NC(=O)N1` [barbituric acid], for which, under “free”, the “solubility in CD3CN” value was “sparingly soluble”. Besides, the “solubility in CD3CN in the presence of the bisamidopyridine dendrimers” value (with bisamidopyridine dendrimers) is on record as “freely soluble to the limit of complementary complexation”.
